The values that follow come from article PMC4488699, “Proteasome as a Molecular Target of Microcystin-LR” (Toxins, 2015).

In data set [1] the test system is proteasome PGPH activity in PC-3-GFP^u whole cell extracts. The class given is cell-based.
In data set [2] the test system is proteasome TL activity in PC-3-GFP^u whole cell extracts. The class given is cell-based.
The subject of data set [3] is proteasome CT activity in PC-3-GFP^u whole cell extracts. The format is cell-based.
Data set [4] relates to animal cells. The following applies: cited from earlier work.
Data set [5] deals with proteasome TL activity in the liver of Gobiocypris rarus. The following applies: in vivo.
Data set [6] concerns PC-3-GFP^u cells. The format is cell-based.
For data set [7], the system named is protease. The note with it: cited from earlier work.
The subject of data set [8] is serine/threonine protein phosphatases (PPs). The following applies: cited from earlier work.

Read-outs that look alike come from different tables or passages of the source. Numbered stars: 1 amine (or outer) side, 2 acyl side, 3 side chain; on linkers, the order of the positions; unused ones are H or OH. Bridge positions count the residues as written; N and C are the ends. Square brackets hold non-standard residues; d marks the D form. Peptide text beside a SMILES is read from it. * marks the point of attachment. Adda = CO[C@@H](Cc1ccccc1)[C@@H](C)/C=C(C)/C=C/[C@H](N[*:1])[C@H](C)C(=O)[*:2]; dAsp(3S-Me) = C[C@H](C(=O)[*:3])[C@@H](N[*:1])C(=O)[*:2]; d(γGlu) = O=C(O)[C@@H](CCC(=O)[*:2])N[*:1]; Cbz = O=C(OCc1ccccc1)*; NMeDha = C=C(NC)C(=O)O

`C=C1C(=O)N[C@H](C)C(=O)N[C@@H](CC(C)C)C(=O)N[C@@H](C(=O)O)[C@H](C)C(=O)N[C@@H](CCCNC(=N)N)C(=O)N[C@@H](/C=C/C(C)=C/[C@H](C)[C@H](Cc2ccccc2)OC)[C@H](C)C(=O)N[C@@H](C(=O)O)CCC(=O)N1C` [MC-LR, microcystin-LR] (R[Adda][d(γGlu)][NMeDha][dA]L[dAsp(3S-Me)]-OH; lactam N-7): in data set [1], the “effect on cellular proteasome PGPH activity” value is given as “slightly inhibited”. In data set [2], the “inhibition of cellular proteasome TL activity” value is reported as 34%. Also, in data set [3], the “effect on cellular proteasome CT activity” value is listed as “did not evidently change”. In addition, the “induction of oxidative stress” value in data set [4] is “induce oxidative stress in animal cells”. Moreover, in data set [5], the “dose dependence of inhibition of proteasome TL activity in the liver” value is listed as “dose-dependently inhibited”. In data set [5] (pH 7.4), the “inhibition rate of proteasome TL activity in the liver” value is 43%. For the same compound, the “GFP degradation / accumulation of ubiquitinated GFP” value in data set [6] is reported as “Ubiquitinated GFP also accumulated”. The degradation by protease entry in data set [7] is “cannot be degraded by protease”. Moreover, in data set [8], the “inhibition of serine/threonine protein phosphatases” value is “inhibition to serine/threonine protein phosphatases”.
Regarding `CC(C)C[C@@H](C=O)NC(=O)[C@H](CC(C)C)NC(=O)[C@H](CC(C)C)NC(=O)OCc1ccccc1` [MG-132] (Cbz-Leu-Leu-Leu-aldehyde), the “GFP degradation / accumulation of ubiquitinated GFP” value in data set [6] (MG-132 1 μM (positive control), 24 h, vs DMSO, fluorescence microscopy) is “GFP degradation was retarded and ubiquitinated GFP accumulated”.
